Results from ChEMBL document CHEMBL1131315, “Synthesis and anticonvulsant activity of 2(3H)-benzoxazolone and 2(3H)-benzothiazolone derivatives” (J Med Chem, 1998).
“And” between values parts separate entries of the source, which are not always exact repeats. Equal entries are not always repeated. The source made the active and inactive calls. No cut-off for these calls is given here.

How the values were obtained:
Mus musculus [1] = experiment: Anticonvulsant activity in subcutaneous pentylenetetrazole seizure test for 30 min in mice; No activity/toxicity at 300 mg/kg.; assay type: functional, organism-based; set-up: dose 300 mg/kg
Mus musculus [2] = experiment: The anticonvulsant activity in subcutaneous pentylenetetrazole seizure test (sc Met) for 4 hr in mice; no activity or no toxicity at 300 mg/kg; assay type: functional, organism-based; set-up: dose 300 mg/kg
Mus musculus [3] = experiment: The compound was tested for anticonvulsant activity in Maximal electroshock seizure test for 30 min in mice(ip); active at 300 mg/kg; assay type: functional, organism-based; set-up: dose 300 mg/kg
[4] = The compound was tested for neurologic toxicity (rotarod) test for 4 hours in mice; no activity or no toxicity at 300 mg/kg; assay type: organism-based; set-up: dose 300 mg/kg; conditions: mouse, in vivo
Mus musculus [5] = experiment: The compound was tested for anticonvulsant activity in Maximal electroshock seizure test (MES) for 4 hr in mice(ip); no activity or toxicity at 300 mg/kg; assay type: functional, organism-based; set-up: dose 300 mg/kg
[6] = The compound was tested for neurologic toxicity (rotarod) test for 30 min in mice; no activity or no toxicity at 300 mg/kg; assay type: organism-based; set-up: dose 300 mg/kg; conditions: mouse, in vivo, 0.5 h
[7] = (§1) The compound was tested for neurologic toxicity (rotarod) test for 30 min in mice; active at 100 mg/kg; assay type: organism-based; set-up: dose 100 mg/kg; conditions: mouse, in vivo, 0.5 h
Mus musculus [8] = organism: Mus musculus; experiment: Protective index value is the ratio between TD50 and ED50 values.; assay type: functional
Rattus norvegicus [9] = experiment: The compound was tested for the toxic dose on oral administration.; assay type: functional
Mus musculus [10] = experiment: The compound was tested for anticonvulsant activity in subcutaneous pentylenetetrazole seizure test (sc Met) for 4 hr in mice; active at 300 mg/kg; assay type: functional, organism-based; set-up: dose 300 mg/kg
Rattus norvegicus [11] = organism: Rattus norvegicus; experiment: Protective index value is the ratio between ED50 and TD50; assay type: functional
Mus musculus [12] = experiment: The compound was tested to inhibit 50% of induced maximal electroshock seizure in mice on ip administration.; assay type: functional
Mus musculus [13] = experiment: The compound was tested for anticonvulsant activity in subcutaneous pentylenetetrazole seizure test (sc Met) for 30 min in mice; active at 100 mg/kg; assay type: functional, organism-based; set-up: dose 100 mg/kg
Mus musculus [14] = experiment: The compound was tested for anticonvulsant activity in Maximal electroshock seizure test (MES) for 4 hr in mice(ip); active at 100 mg/kg; assay type: functional, organism-based; set-up: dose 100 mg/kg
[15] = The compound was tested for time of peak effect (TPE) in hours for its toxicity in mice on ip administration.; assay type: organism-based; conditions: mouse, in vivo
Rattus norvegicus [16] = experiment: The compound was tested for the effective oral dose to inhibit 50% of the anticonvulsant in rats; assay type: functional
[17] = The compound was determined for the dose (mg/kg) by rotarod test at the time of peak neurotoxic effect in mice on ip administration.; assay type: ADME, organism-based; conditions: mouse, in vivo
Mus musculus [18] = experiment: Inhibition of s.c. pentylenetetrazole induced seizure in mice following i.p. administration.; assay type: functional
[19] = (§2) The compound was tested for neurologic toxicity (rotarod) test for 4 hours in mice; active at 300 mg/kg; assay type: organism-based; set-up: dose 300 mg/kg; conditions: mouse, in vivo
Mus musculus [20] = experiment: Anticonvulsant activity in Maximal electroshock seizure test at 100 mg/kg i.p. in mice.; assay type: functional, organism-based; set-up: dose 100 mg/kg
Mus musculus [21] = experiment: Time of peak effect in mice following i.p. administration.; assay type: functional
Mus musculus [22] = experiment: as §1; assay type: functional, organism-based; set-up: dose 100 mg/kg
Mus musculus [23] = experiment: The compound was tested for anticonvulsant activity in Maximal electroshock seizure test (MES) for 4 hr in mice(ip); active at 300 mg/kg; assay type: functional, organism-based; set-up: dose 300 mg/kg
Mus musculus [24] = experiment: as §2; assay type: functional, organism-based; set-up: dose 300 mg/kg
Mus musculus [25] = experiment: The compound was determined for the dose (mg/kg) by rotarod test at the time of peak neurotoxic effect in mice on ip administration; assay type: functional
Mus musculus [26] = experiment: The compound was tested for anticonvulsant activity in subcutaneous pentylenetetrazole seizure test (sc Met) for 4 hr in mice; no activity or toxicity at 300 mg/kg; assay type: functional, organism-based; set-up: dose 300 mg/kg
Rattus norvegicus [27] = experiment: The compound was tested per os dose of 30 mg/kg for 4 hours for rotarod toxicity; 0/4; assay type: functional
Rattus norvegicus [28] = experiment: The compound was tested for the effective oral dose to inhibit 50% of the anticonvulsant in rats.(value in parenthesis indicate 95% confidence limits).; assay type: functional
Rattus norvegicus [29] = experiment: The compound was tested per os dose of 30 mg/kg for 1 hour for maximal electroshock test (MES) on rats; MES= 1/4; assay type: functional
Rattus norvegicus [30] = experiment: The compound was tested per os dose of 30 mg/kg for 2 hours for maximal electroshock test (MES) on rats; MES= 0/4; assay type: functional
Mus musculus [31] = experiment: The compound was tested for anticonvulsant activity in subcutaneous pentylenetetrazole seizure test (sc Met) for 30 min in mice; no activity or toxicity at 300 mg/kg; assay type: functional, organism-based; set-up: dose 300 mg/kg
Sigma 2 receptor = experiment: Affinity on sigma 2 receptor using [3H]- DTG as radioligand
Rattus norvegicus [32] = experiment: The compound was tested per os dose of 30 mg/kg for 4 hours for maximal electroshock test (MES) on rats; MES= 0/4; assay type: functional
Rattus norvegicus [33] = experiment: The compound was tested per os dose of 30 mg/kg for 0.5 hours for rotarod toxicity; 0/4; assay type: functional
Rattus norvegicus [34] = experiment: The compound was tested per os dose of 30 mg/kg for 0.25 hours for maximal electroshock test on rats; MES= 3/4; assay type: functional
Rattus norvegicus [35] = experiment: The compound was tested per os dose of 30 mg/kg for 2 hours for rotarod toxicity; 0/4; assay type: functional
Mus musculus [36] = experiment: The compound was tested for anticonvulsant activity in Maximal electroshock seizure test (MES) for 30 min in mice(ip); activity at 30 mg/kg; assay type: functional, organism-based; set-up: dose 30 mg/kg
Mus musculus [37] = experiment: The compound was tested to inhibit 50% of induced subcutaneous pentylenetetrazole seizure in mice on ip administration; assay type: functional
Mus musculus [38] = experiment: The compound was tested to inhibit 50% of induced maximal electroshock seizure in mice on ip administration; assay type: functional
Rattus norvegicus [39] = experiment: The compound was tested per os dose of 30 mg/kg for 1 hour for rotarod toxicity; 0/4; assay type: functional
Rattus norvegicus [40] = experiment: The compound was tested per os dose of 30 mg/kg for 0.25 hours for rotarod toxicity; 0/4; assay type: functional
Rattus norvegicus [41] = experiment: The compound was tested per os dose of 30 mg/kg for 0.5 hours for maximal electroshock test (MES) on rats; MES= 2/4; assay type: functional
[42] = molecular target: Sigma non-opioid intracellular receptor 1 (Homo sapiens) (UniProt Q99720); experiment: Ratio between the Ki(nM)values of sigma-2 and sigma-1; assay type: functional; conditions: Cavia porcellus
Chain of Sigma non-opioid intracellular receptor 1 (Homo sapiens) (Q99720 whole entry): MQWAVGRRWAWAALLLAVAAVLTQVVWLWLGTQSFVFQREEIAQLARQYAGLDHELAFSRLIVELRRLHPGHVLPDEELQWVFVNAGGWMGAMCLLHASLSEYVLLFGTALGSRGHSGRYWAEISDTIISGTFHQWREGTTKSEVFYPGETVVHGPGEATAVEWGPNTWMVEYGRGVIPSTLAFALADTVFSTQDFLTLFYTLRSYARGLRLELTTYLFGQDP

[43] = The compound was tested for neurologic toxicity (rotarod) test for 30 min in mice; no activity or toxicity at 300 mg/kg; assay type: organism-based; set-up: dose 300 mg/kg; conditions: mouse, in vivo, 0.5 h
[44] = The compound was tested for neurologic toxicity (rotarod) test for 4 hr in mice; no activity or toxicity at 300 mg/kg; assay type: organism-based; set-up: dose 300 mg/kg; conditions: mouse, in vivo

## CCC(=O)c1ccc2nc(O)oc2c1
Mus musculus [1]
  scMet: No activity or no toxicity at 300 mg/kg
Mus musculus [2]
  scMet: No activity or no toxicity at 300 mg/kg
Mus musculus [3]
  MES: active at 300 mg/kg
[4]
  Rotarod toxicity: No activity or no toxicity at 300 mg/kg
Mus musculus [5]
  MES: active at 300 mg/kg
[6]
  Rotarod toxicity: No activity or no toxicity at 300 mg/kg

## Oc1nc2ccc(Cc3ccc(F)cc3)cc2o1
[7]
  Rotarod toxicity: active at 100 mg/kg
Mus musculus [8]
  PI: 2.8 and 1.6
Rattus norvegicus [9]
  TD50: > 220 mg/kg
Mus musculus [10]
  scMet: active at 100 mg/kg
Rattus norvegicus [11]
  PI: 18.5
Mus musculus [12]
  ED50: 125 mg/kg
Mus musculus [13]
  scMet: active at 100 mg/kg
Mus musculus [14]
  MES: active at 100 mg/kg
[15]
  Toxicity: 1 h
Rattus norvegicus [16]
  ED50: 11.9 mg/kg
[17]
  TD50: 356 mg/kg
Mus musculus [18]
  ED50: 218 mg/kg
[19]
  Rotarod toxicity: active at 100 mg/kg
Mus musculus [20]
  MES: active at 100 mg/kg
Mus musculus [21]
  Activity: 1 h

## O=c1[nH]c2ccccc2s1
Mus musculus [10]
  scMet: active at 100 mg/kg
Mus musculus [13]
  scMet: active at 100 mg/kg
Mus musculus [22]
  Rotarod toxicity: active at 100 mg/kg
Mus musculus [23]
  MES: active at 300 mg/kg
Mus musculus [24]
  Rotarod toxicity: active at 100 mg/kg
Mus musculus [20]
  MES: active at 300 mg/kg

## CCC(=O)c1ccc2c(c1)sc(=O)n2C(=O)CC
Mus musculus [25]
  TD50: 145 mg/kg
Mus musculus [26]
  scMet: No activity or toxicity at 300 mg/kg
Rattus norvegicus [27]
  Activity: 0
Rattus norvegicus [28]
  ED50: 32.4 mg/kg
Mus musculus [5]
  MES: activity at 30 mg/kg
Rattus norvegicus [29]
  Activity: 1
Rattus norvegicus [30]
  Activity: 0
Mus musculus [31]
  scMet: No activity or toxicity at 300 mg/kg
Sigma 2 receptor
  Ki: 670 nM
Rattus norvegicus [32]
  Activity: 0
Rattus norvegicus [33]
  Activity: 0
Rattus norvegicus [34]
  Activity: 3
[15]
  Toxicity: 0.25 h
Rattus norvegicus [35]
  Activity: 0
Mus musculus [36]
  MES: activity at 30 mg/kg
Mus musculus [37]
  ED50: > 300 mg/kg
Mus musculus [38]
  ED50: 19.4 mg/kg
Rattus norvegicus [39]
  Activity: 0
Rattus norvegicus [40]
  Activity: 0
Rattus norvegicus [41]
  Activity: 2
[42]
  Ratio: 11
[43]
  Rotarod toxicity: No activity or toxicity at 300 mg/kg
Mus musculus [21]
  Activity: 0.25 h
[44]
  Rotarod toxicity: No activity or toxicity at 300 mg/kg
